Reference: patent US20230041859A1, “USE OF TERPENOIDS IN THE TREATMENT OR PREVENTION OF FIBROTIC DISEASES” (Arjil Biotech Holding Company Limited, priority 2021, published 2023)
Values joined by “and” are separate entries in the source; they are usually repeats but may differ in a detail not shown here. Identical values can stand only once.

Assays:
MPO = experiment: Bleomycin-induced pulmonary fibrosis: lung myeloperoxidase (MPO) assay; assay type: in vivo, mice; details: 50 mg/kg (high-dose groups); vs BLM group p<0.001
Description: (§1) Mice were divided into fifth groups with 5 animals per group according to body weight: control group, BLM group, BLM+DEX group (7.5 mg/kg), BLM+ACH dosage group (50 mg/kg), and BLM+ACM dosage group (25 mg/kg), BLM+ACH dosage group (50 mg/kg), and BLM+ACM dosage group (25 mg/kg) BLM+AH dosage group (50 mg/kg), and BLM+AM dosage group (25 mg/kg) BLM+BH dosage group (50 mg/kg), and BLM+BM dosage group (25 mg/kg) BLM+CH dosage group (50 mg/kg), and BLM+CM dosage group (25 mg/kg) BLM+DH dosage group (50 mg/kg), and BLM+DM dosage group (25 mg/kg) BLM+EH dosage group (50 mg/kg), and BLM+EM dosage group (25 mg/kg) BLM. Pulmonary fibrosis (PF) was established in mice via a single intratracheal administration of BLM at 7.5 mg/kg mg/kg body weight. Different doses of samples were intragastrically administered daily for 21 days after BLM injury, and DEX was used as the positive control. Control and model groups received an equal volume of vehicle (0.9% NaCl) using the same schedule and route of administration.
(§2) 1. Group I: control; 2. Group II: mice received single intraperitoneal injection of BLM (7.5 mg/kg BW) 3. Group III: single dose (ACH, 0.5 g/kg) 4. Group IV: Single dose (ACM, 1.0 g/kg) 5. […] Group VII: purified AR101-DS2 (50 mg/kg) 8. Group VIII: purified AR101-DS2 (25 mg/kg) 7. Group VII: purified AR101-DS4 (50 mg/kg) 8. Group VIII: purified AR101-DS4 (25 mg/kg) 7. […] Group VII: purified ARH013-RA1 (50 mg/kg) 8. Group VIII: purified ARH013-RA1 (25 mg/kg)
The lung tissues were homogenized and the MPO levels were detected with the kits according to manufacturer's instruction.

[1] = test system: bleomycin-induced pulmonary fibrosis; experiment: Bleomycin-induced pulmonary fibrosis: hydroxyproline content in lung tissue; assay type: in vivo, mice; details: 50 mg/kg (high-dose groups); p<0.001
Description: as §1, §2

[2] = test system: bleomycin-induced pulmonary fibrosis; experiment: Bleomycin-induced pulmonary fibrosis in mice: body weight, lung weight, lung index; assay type: in vivo; details: for Pulmonary index: lung weight/body weight×100
Description: (§3) Specific pathogen-free ICR mice (males) (body weights 18-22 g) were purchased from the BioLASCO Taiwan Co., Ltd. (Taipei, Taiwan). The animals were housed in Plexiglas cages at a constant temperature of 22±1° C. and a relative humidity of 55±5% on a 12 h dark-light cycle for at least 2 weeks before the experiment. Animals were provided food and water ad libitum. All experimental procedures were performed according to the guidelines of the Institutional Animal Ethics Committee, and the protocol was approved by the Committee for the Purpose of Control and Supervision of Experiments on Animals.
as §1
Mouse body weights were recorded daily. Mice were sacrificed on the 21th day using excess chloral hydrate hydrochloride anesthesia. Blood was obtained for ELISA analyses, and whole lungs were removed and weighed. The right lungs were fixed in 10% formalin, dehydrated, and embedded in paraffin. The left lungs were used to determine hydroxyproline. The pulmonary coefficient was calculated using the following equation: lung weight/body weight×100% […]
At the end point of the entire experiment, the animal's body weight and lung weight were recorded.

[3] = test system: bleomycin-induced pulmonary fibrosis; experiment: Bleomycin-induced pulmonary fibrosis: lung histopathology (H&E, Masson's trichrome); assay type: in vivo, mice; details: 50 mg/kg (high-dose groups)
Description: as §1
1. Group I: control; 2. Group II: mice received single intraperitoneal injection of BLM (7.5 mg/kg BW) 3. Group III: single dose (ACH, 0.5 g/kg) 4. Group IV: Single dose (ACM, 1.0 g/kg) 5. […] Group VII: purified AR101-DS2 (50 mg/kg) 8. Group VIII: purified AR101-DS2 (25 mg/kg) 7. Group VII: purified AR101-DS4 (50 mg/kg) 8. Group VIII: purified AR101-DS4 (25 mg/kg) 7. […]

[4] = test system: TNF-α, IL-1β, IL-6 and TGF-β; experiment: Bleomycin-induced pulmonary fibrosis: pro-inflammatory cytokines (ELISA); assay type: in vivo, mice; details: 50 mg/kg (high-dose groups); serum (FIG. 35 legend: BALF); p<0.001
Description: as §1
1. Group I: control; 2. […]
The serum concentration of the pro-inflammatory cytokines (i.e. tumor necrosis factor-α (TNF-α), interleukin-6 (IL-6), and IL-1β) in serum were assessed with relevant enzyme-linked immunosorbent assay (ELISA) kits (Biosource International Inc., Sunnyvale, Calif., USA), based on the manufacturer's instructions. […]

HepG2 cells = experiment: Oleic acid-induced steatosis in HepG2 cells (Oil Red O); assay type: cell-based, human; details: 6 h pre-treatment, then 0.5 mM OA for 24 h, OD 510 nm, at noncytotoxic concentration
Description: Oleic acid (OA) induced steatosis in HepG2 cells and may consider an in vitro model for human fatty liver disease. HepG2 cells were treated with different concentrations of oleic acid (OA) to induce steatosis. Intracellular lipid was stained by Oil Red O (ORO), and quantified by colorimetric assay. 0.5 mM OA was chosen for further studies (FIGS. 37 and 38). HepG2 cells were treated with test compounds ([…]) and incubated for 48 h (FIG. 39). HepG2 cells were seeded in 24-well plates and deprived from FBS for 24 h. These cells were then treated with different concentrations of test compounds for 6 h before induced with 0.5 mM OA for 24 h. Cells were gently washed with PBS and fixed using paraformaldehyde at RT, then stained with Oil Red (ORO) solution for 30 min at RT. ORO stain was extracted using pure isopropanol and the optical density was detected at 510 nm (FIG. 40).

[5] = test system: cisplatin-induced renal injury; experiment: Mice model of cisplatin-induced renal injury: serum creatinine (CRE) and BUN; assay type: in vivo; details: compounds, dose not given, daily for 7 days; p<0.001 vs cisplatin group
Description: Determination of biochemical parameters Serum creatinine and serum urea are assessed using colorimetric kits according to manufacturer's instructions. Kits of the former markers are purchased from (HUMAN Diagnostics Worldwide, Magdeburg, Germany) with a chemical analyzer (Roche Diagnostics, Cobas Mira Plus, Rotkreuz, Switzerland).
as §3, with “Seven-to-eight-week-old male C57BL/6” for “Specific pathogen-free ICR”, “are obtained” for “(males) (body weights 18-22 g) were purchased”, “are” for “were”, “is” for “was”
Renal fibrosis is induced via multiple injections of low-dose cisplatin. Intraperitoneal injections of cisplatin (5 mg/kg/injection; P4394, Sigma-Aldrich, St Louis, Mo.) are performed at 0, 1, and 3 weeks, for a total of 3 injections. Mice are sacrificed at 6 weeks after the first dose of cisplatin (n=6). To analyze the effects of samples, mice are given daily intraperitoneal injections for 7 days, starting from 4 weeks after first dose of cisplatin, and sacrificed at […] (n=6). […]

[6] = test system: atherosclerosis and liver fibrosis in hypercholesterolemic rabbit; experiment: Hypercholesterolemic rabbit model (0.5% cholesterol chow), liver histology scores; assay type: in vivo; details: 10 mg/kg in 0.5% cholesterol chow; individual liver slides, 12-week study
Description: 2 to 3 kg male, New Zealand White rabbits are individually caged and housed in temperature and humidity-controlled rooms. Light-dark cycles are 12 h each. After several days of acclimation, the animals are sequentially assigned to six feeding groups: standard rabbit chow, standard rabbit chow containing 0.5% cholesterol, standard rabbit chow containing both 0.5% cholesterol and 10 mg/kg Lovastatin, standard rabbit chow containing both 0.5% cholesterol and 1% ARH003, standard rabbit chow containing both 0.5% cholesterol and 1% ARH004, standard rabbit chow containing both 0.5% cholesterol and 10 mg/kg AR101-DS2. Except standard rabbit chow, others groups are given standard rabbit chow containing 0.5% cholesterol for 4 weeks (see FIGS. 14-15). The daily feeding amount for each rabbit is 50 g/kg body weight per day. Diets are administered for 8 weeks, after the animals had adjusted to their new environment. At the beginning and end of the 12 weeks study, the rabbits are anesthetized by an intramuscular injection of Zoletil 50 (1 mL/kg) (Virbac Ltd., France), and blood samples are harvested. Finally, the aortas (from aortic arch to the bifurcation of the iliac arteries) and whole livers are collected from the rabbits after they are sacrificed for further histopathological analyses.
(ND) standard rabbit chow, n=5; (HF) standard rabbit chow containing 0.5% cholesterol, n=6; (L) standard rabbit chow containing both 0.5% cholesterol and 10 mg/kg Lovastatin, n=4; (AR003) standard rabbit chow containing both 0.5% cholesterol and 1% ARH003, n=5; (AR004) standard rabbit chow containing both 0.5% cholesterol and 1% ARH004, n=5; (AR101-DS2) standard rabbit chow containing both 0.5% cholesterol and 10 mg/kg AR101-DS2, n=5; The daily feeding amount for each rabbit is 50 g/kg body weight per day.
The rabbit liver tissues (shown in FIG. 29) are perfused with normal saline and fixed in 10% (v/v) formalin-neutralized solution (J.T. Baker, Inc., USA) for 24 hr. […] Briefly, the slices are washed with pure water for 1 min to remove the OCT compound, washed with 50% (v/v) ethanol for 30 sec, and then stained with 2% (w/v) Sudan IV for 1 hr. After further washing with 50% (v/v) ethanol and pure water for 2 min, the slices are counterstained with hematoxylin. Photographs shown in FIG. 30 are acquired using a microscope equipped with a 10-fold magnification objective and quantified on an Alpha Imager 2200 documentation system (Alpha Innotech, USA). […]

[7] = 25 mg/kg intragastric daily for 21 days after BLM
[8] = 50 mg/kg intragastric daily for 21 days after BLM
[9] = DEX 7.5 mg/kg daily for 21 days after BLM

Molecule | lung MPO activities (MPO) | hydroxyproline (HP) content in lung tissue [1] | Final body mass [2, 7] | Pulmonary mass [2, 7] | Final body mass [2, 8] | Pulmonary mass [2, 8] | necrosis and inflammatory infiltrating cells in the lung tissue [3] | TNF-α, IL-1β, IL-6 and TGF-β production after BLM challenge [4] | Score of Inflammation [6] | Score of Steatosis Grade [6] | other results
C=C(CC[C@@H](C)[C@H]1CC[C@H]2C3=C(C(=O)C[C@]12C)[C@@]1(C)CC[C@@H](O)[C@](C)(O)[C@@H]1C[C@@H]3O)[C@@H](C)C(=O)O (racemic) [AR101-DS1, RS-Antcin K] | evidently suppressed | reduced | 36.45 ± 0.28 g | 0.52 ± 0.01 g | 39.02 ± 0.37 g | 0.46 ± 0.01 g |  |  |  |  | 
C=C1C(=O)O[C@@H]2/C=C(\C)C[C@H]3C=C(CC/C=C(\C)CC[C@@H]12)C(=O)O3 [AR100-DS1, Ovatodiolide] | evidently suppressed | reduced |  |  |  |  | significantly improved | improved |  |  | 
C=C(CC[C@@H](C(=O)O)[C@H]1CC[C@@]2(C)C3=CC[C@H]4C(C)(C)[C@@H](O)CC[C@]4(C)C3=CC[C@]12C)C(C)C [AR101-DS4, Dehydroeburicoic Acid] |  |  | 36.44 ± 0.28 g | 0.52 ± 0.01 g | 37.47 ± 0.22 g | 0.49 ± 0.01 g |  |  |  |  | Pulmonary index [2, 7]: 1.54 ± 0.04; Pulmonary index [2, 8]: 1.31 ± 0.01; OA-induced steatosis in HepG2 cells (HepG2 cells): inhibition; renal protection effect (normalization of serum CRE and BUN) [5]: significant renal protection effect
C[C@@H]1C[C@H]2[C@@H]3CCC4=CC(=O)C=C[C@]4(C)[C@@]3(F)[C@@H](O)C[C@]2(C)[C@@]1(O)C(=O)CO [DEX, Dexamethasone, reference compound] |  |  |  |  |  |  |  |  |  |  | Final body mass [2, 9]: 38.50 ± 0.22 g; Pulmonary mass [2, 9]: 0.42 ± 0.01 g; Pulmonary index [2, 9]: 1.09 ± 0.02
CC[C@H](C)C(=O)O[C@H]1C[C@@H](C)C=C2C=C[C@H](C)[C@H](CC[C@@H]3C[C@@H](O)CC(=O)O3)[C@H]21 [L, Lovastatin, reference compound] |  |  |  |  |  |  |  |  | 1 (1′: mild, 2 foci per 200 field) and 2 (2′: moderate, 2-4 foci per 200 field) | 2 (2′: 33-66%) (2×) and 0 (0′: low- to medium-power evaluation of parenchymal involvement <5%) | 
Dehydrosulphurenic acid/Sulphurenic acid [AR101-DS2] | evidently suppressed | reduced |  |  |  |  | significantly improved | improved | 1 (1′: mild, 2 foci per 200 field) (2×) and 2 (2′: moderate, 2-4 foci per 200 field) | 3 (3′: >66%) (2×) and 1 (1′: 5-33 %) | Pulmonary index ([2]; 50 mg/kg intragastric daily for 21 days after BLM, listed as BH): significant decrease
